These results are taken from paper PMC9144402, “An Octopus-Derived Peptide with Antidiuretic Activity in Rats” (Marine Drugs, 2022).

Bounds are passed on as bounds.

Data set [1] relates to Sprague-Dawley (SD) rats. The data set is described as follows: Antidiuretic experiment in SD rats (single tail intravenous injection, metabolic cage). It counts as in vivo, rat. The settings on record: SD rats; 0.001 mg/mL/kg micro intravenous tail administration.
Data set [2] has as its system HEK293T human kidney cells. The data set is described as follows: CCK-8 cell viability assay and morphology, HEK293T. It counts as cell-based. Conditions: CCK-8, triplicate; for viable HEK293T cells: 0.1–50 μM. The method, then:
Human kidney HEK293T cells were obtained from the American Type Culture Collection (ATCC, Manassas, VA, USA). The 293T cells were grown in DMEM supplemented with 10% fetal bovine serum (HyClone, Logan, UT, USA) and penicillin–streptomycin. Cells were incubated at 37 °C in a humidified atmosphere with 95% air/5% CO2. HEK293T cells (5 × 10^3) were incubated in 96-well plates to measure cell viability using a Cell Counting Kit-8 (CCK-8; Dojindo Laboratories, Kumamoto, Japan). After overnight incubation, the medium was changed to fresh medium containing CPT at doses of 50~0.1 μM in three wells each. Then, the cells were incubated for 24, 48, or 72 h and photographed under a phase-contrast microscope. We added 100 μL of fresh medium and 10 μL of CCK-8 solution to each well. After incubation for 3 h at 37 °C, the optical density (OD) at 450 nm was measured using a Spectramax i3x instrument (Molecular Devices, San Jose, CA, USA). The cell viability was calculated as follows: cell viability (%) = (OD (experiment) − OD (blank))/(OD (control) − OD (blank)) × 100%
In general terms: Tetrazolium dyes change colour on reduction, which living cells bring about.

The conditions of data set [3]: administered intravenously; no reference printed ('generally known'); cited from earlier work.
Data set [4] relates to Sprague-Dawley (SD) rats. The data set is described as follows: Death and signs of toxicity after intravenous injection in SD rats. It counts as in vivo, rat.
Data set [5] has as its system rat V1bR. Also noted: method as in PMID 9264324. The settings on record: ref [8]; cited from earlier work.
Data set [6] relates to rat V2R. Also noted: method as in PMID 9264324. Conditions: ref [8]; cited from earlier work.
Data set [7] concerns the target T1, human V1bR (Homo sapiens, UniProt P47901).
T1 construct: host or cells: RBL
T1 sequence (P47901 1-424): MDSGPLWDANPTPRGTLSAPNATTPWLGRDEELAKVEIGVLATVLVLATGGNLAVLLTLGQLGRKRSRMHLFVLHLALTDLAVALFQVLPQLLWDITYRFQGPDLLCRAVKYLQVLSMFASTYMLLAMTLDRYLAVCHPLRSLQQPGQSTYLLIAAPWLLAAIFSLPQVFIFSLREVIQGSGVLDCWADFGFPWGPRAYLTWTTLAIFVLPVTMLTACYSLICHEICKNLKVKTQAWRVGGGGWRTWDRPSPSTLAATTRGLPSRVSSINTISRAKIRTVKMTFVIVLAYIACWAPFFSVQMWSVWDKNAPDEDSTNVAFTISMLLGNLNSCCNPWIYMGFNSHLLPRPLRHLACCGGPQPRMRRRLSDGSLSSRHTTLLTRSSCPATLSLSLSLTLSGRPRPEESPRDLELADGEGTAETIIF
In words: V1bR functional assay, antagonist effect (5 nM AVP-induced intracellular Ca^2+, fluorimetry, RBL cells). It counts as cell-based. The settings on record: all concentrations tested, stimulant 5 nM AVP, RT, triplicate. The protocol: (§1) Detailed information about the cells tested and other experimental conditions are described in Table 2. Briefly, cells were transfected with a recombinant expression vector capable of expressing each type of human OXT/AVP receptor. To evaluate the agonist effects on OXTR, V1aR, and V1bR, the intracellular Ca^2+ increase after treatment with OTP or CPT was measured by fluorimetry. […] For V2R receptors, cells were treated with peptides with or without the stimulant for 30 min. After that, cyclic AMP (cAMP) concentrations were measured by homogeneous time-resolved fluorescence (HTRF). The results were represented as the percent submaximal response achieved by the stimulant. All experiments were performed in triplicate. Data are presented as the mean ± standard error of the mean. The 50% effective concentration (EC50) and 50% inhibitory concentration (IC50) values were determined using a 4-parameter logistic fitting of a dose–response curve using SigmaPlot 10.0 (Systat Software, Palo Alto, CA, USA).

Data set [8] addresses T2, human V2R (Homo sapiens, UniProt P30518).
T2 construct: host or cells: CHO
In words: V2R functional assay, agonist effect (cAMP accumulation, HTRF, CHO cells). It counts as cell-based. Conditions: 50 μM; CHO; 30 min RT; HTRF; % of control response (1 nM AVP); triplicate. The method, then:
as §1

In data set [9] the target is T3, human OXTR (Homo sapiens, UniProt P30559).
T3 construct: host or cells: ECV304
T3 sequence (P30559 1-389): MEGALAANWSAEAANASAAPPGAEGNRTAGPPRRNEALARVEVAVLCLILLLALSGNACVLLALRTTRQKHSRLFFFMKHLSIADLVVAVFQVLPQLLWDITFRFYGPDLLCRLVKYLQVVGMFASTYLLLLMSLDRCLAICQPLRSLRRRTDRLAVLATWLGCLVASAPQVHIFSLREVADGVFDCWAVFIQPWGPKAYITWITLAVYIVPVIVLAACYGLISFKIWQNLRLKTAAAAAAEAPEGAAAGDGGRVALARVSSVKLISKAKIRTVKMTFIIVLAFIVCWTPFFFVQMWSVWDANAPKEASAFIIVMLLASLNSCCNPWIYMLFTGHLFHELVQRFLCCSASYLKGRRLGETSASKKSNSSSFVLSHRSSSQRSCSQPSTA
In words: OXTR functional assay, agonist effect (intracellular Ca^2+ increase, fluorimetry, transfected ECV304 cells). Format: cell-based. Conditions: up to 50 μM, RT, % of control response (1 µM OXT), triplicate. The protocol:
as §1

For data set [10], the target named is T4, human V1aR (Homo sapiens, UniProt P37288).
T4 construct: host or cells: CHO
The data set is described as follows: V1aR functional assay, antagonist effect (10 nM AVP-induced intracellular Ca^2+, fluorimetry, CHO cells). It counts as cell-based. Conditions: all concentrations tested; CHO; stimulant 10 nM AVP; RT; fluorimetry; triplicate. The method, then: as §1

The test system of data set [11] is oviduct, aorta, and rectum. Conditions: in vitro preparations of oviduct, ref [18]; cited from earlier work. An excerpt: (§2) These genes produce active nonapeptides, which are named octopressin (OTP) and cephalotocin (CPT). […] OTP was also reported to evoke hyperactivity in chromatophore cells, ra ...
Data set [12] deals with Octopus vulgaris. The settings on record: same species (Octopus vulgaris); ref [20]; cited from earlier work.
Source text: as §2

Data set [13] relates to O. ocellatus. Conditions: ref [21]; cited from earlier work.
Source text: as §2

In data set [14] the test system is common cuttlefish (Sepia officinalis). The settings on record: ref [22]; cited from earlier work.
Source text: as §2

In data set [15] the target is T1, human V1bR. The data set is described as follows: V1bR functional assay, agonist effect (intracellular Ca^2+ increase, fluorimetry, RBL cells). Format: cell-based. Conditions: up to 50 μM; RBL; RT; fluorimetry; % of control response (0.1 µM AVP); triplicate. The protocol:
as §1

The target in data set [16] is T4, human V1aR. The data set is described as follows: V1aR functional assay, agonist effect (intracellular Ca^2+ increase, fluorimetry, CHO cells). It counts as cell-based. The settings on record: up to 50 μM, RT, % of control response (1 µM AVP), triplicate. The protocol: as §1
For data set [17], the target named is T2, human V2R. In words: V2R functional assay, antagonist effect (0.03 nM AVP-induced cAMP, HTRF, CHO cells). It counts as cell-based. Conditions: all concentrations tested, stimulant 0.03 nM AVP, 30 min RT, triplicate. The protocol: as §1
A general note: TR-FRET usually uses a lanthanide donor and a delayed reading to cut background.

The target in data set [18] is T3, human OXTR. In words: OXTR functional assay, antagonist effect (30 nM OXT-induced intracellular Ca^2+, fluorimetry, ECV304 cells). Format: cell-based. Conditions: 50 μM; ECV304; stimulant 30 nM OXT; RT; fluorimetry; triplicate. The protocol: as §1
In data set [19] the test system is V1aR. The settings on record: ref [17]; cited from earlier work.

T4 sequence (P37288 whole entry): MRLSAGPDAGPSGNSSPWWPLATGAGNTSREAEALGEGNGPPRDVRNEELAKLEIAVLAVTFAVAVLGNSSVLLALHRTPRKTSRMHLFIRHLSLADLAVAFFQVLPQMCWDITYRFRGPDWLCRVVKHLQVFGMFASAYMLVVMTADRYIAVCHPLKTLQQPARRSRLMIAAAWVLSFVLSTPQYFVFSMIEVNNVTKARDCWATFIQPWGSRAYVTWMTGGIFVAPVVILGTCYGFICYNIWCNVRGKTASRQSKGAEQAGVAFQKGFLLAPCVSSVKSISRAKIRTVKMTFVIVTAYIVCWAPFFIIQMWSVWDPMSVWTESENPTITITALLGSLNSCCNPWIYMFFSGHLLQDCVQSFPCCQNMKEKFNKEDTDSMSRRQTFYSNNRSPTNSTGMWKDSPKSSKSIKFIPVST

As to `NC(=O)CC[C@@H]1NC(=O)[C@H](Cc2ccccc2)NC(=O)[C@H](Cc2ccc(O)cc2)NC(=O)[C@@H](N)CSSC[C@@H](C(=O)N2CCC[C@H]2C(=O)N[C@@H](CCCN=C(N)N)C(=O)NCC(N)=O)NC(=O)[C@H](CC(N)=O)NC1=O` [AVP, arginine vasopressin], the “antidiuretic effect (in words)” value in [1] is on record as “shows an antidiuretic effect”. Besides, the “viable HEK293T cells” value in [2] (24 h after treatment) and in data set [2] (48 h after treatment) was “Over 98%” throughout. Also, the “viability compared to PBS control (in words)” value in data set [2] (72 h, 0.1–10 μM) is reported as “slightly increase the viability”. In addition, the half-life entry in data set [3] is given as “several minutes”. Further, the lethality entry in data set [4] (0.001 mg/mL/kg micro intravenous tail administration) is reported as “occasionally lethal”. For the same compound, the “death or signs of toxicity” value in [4] (injection, 'the same doses' (AVP: data not shown)) is reported as “occasionally caused death”. For the same compound, the EC50 (in general, the concentration at which the effect is half-maximal) is 1.31 nM in data set [5] and 43.5 nM in data set [6].
For “CYWTSCPIG-NH2 (disulfide bond) (disulfide) [OTP, octopressin, natural OXT/AVP analog from Octopus vulgaris, synthesized by solid-phase peptide synthesis]”, the “antagonist effect against V1bR activation” value in data set [7] is listed as “could not inhibit”. Further, the “V2R-mediated cAMP accumulation (agonist effect)” value in [8] is recorded as less than 30%. For the same compound, in [9], the “OXTR-mediated intracellular Ca^2+ increase (agonist effect)” value was “did not seem to induce”. In addition, in [10], the “antagonist effect against V1aR activation” value is given as “could not inhibit”. Also, in data set [11], the “effect on peripheral tissues” value is recorded as “induced contractions”. In addition, the behavioral effect result in data set [12] was “hyperactivity in chromatophore cells, rapid respiration, and jetting water from the siphon”. Moreover, the hemolymph osmolality entry in data set [13] was “decreases hemolymph osmolality”. In [14], the “effect on long-term memory” value is “affect long-term memory”. Further, the “V1bR-mediated intracellular Ca^2+ increase (agonist effect)” value in [15] is listed as “did not seem to induce”. In addition, the “V1aR-mediated intracellular Ca^2+ increase (agonist effect)” value in data set [16] is “did not seem to induce”. The “antagonist effect against V2R activation” value in data set [17] is recorded as “could not inhibit”. For the same compound, in data set [18], the “inhibition rate of OXTR activation” value was “approximately 30%”.
As for inotocin, in data set [19], the “V1aR activity (in words)” value is on record as “selective antagonists of V1aR”.
